Measurements published in US4876359A, “Novel gamma-butyrolactone derivatives” (SS Pharmaceutical Co., Ltd., priority 1986, dated 1989).
pIC50: −log10 of the molar value.

Target: T1, Angiotensin Converting Enzyme (ACE) (Oryctolagus cuniculus, UniProt P12822)
T1 construct: Lyophilized powder (1 g) of rabbit lungs (product of Pel-Freez Biologicals Company) was extracted; tissue Pel-Freez Biologicals Company; host or cells: rabbit lungs, lyophilized powder; 40,000 g supernatant of a phosphate buffer extract
T1 sequence (P12822 34-1310): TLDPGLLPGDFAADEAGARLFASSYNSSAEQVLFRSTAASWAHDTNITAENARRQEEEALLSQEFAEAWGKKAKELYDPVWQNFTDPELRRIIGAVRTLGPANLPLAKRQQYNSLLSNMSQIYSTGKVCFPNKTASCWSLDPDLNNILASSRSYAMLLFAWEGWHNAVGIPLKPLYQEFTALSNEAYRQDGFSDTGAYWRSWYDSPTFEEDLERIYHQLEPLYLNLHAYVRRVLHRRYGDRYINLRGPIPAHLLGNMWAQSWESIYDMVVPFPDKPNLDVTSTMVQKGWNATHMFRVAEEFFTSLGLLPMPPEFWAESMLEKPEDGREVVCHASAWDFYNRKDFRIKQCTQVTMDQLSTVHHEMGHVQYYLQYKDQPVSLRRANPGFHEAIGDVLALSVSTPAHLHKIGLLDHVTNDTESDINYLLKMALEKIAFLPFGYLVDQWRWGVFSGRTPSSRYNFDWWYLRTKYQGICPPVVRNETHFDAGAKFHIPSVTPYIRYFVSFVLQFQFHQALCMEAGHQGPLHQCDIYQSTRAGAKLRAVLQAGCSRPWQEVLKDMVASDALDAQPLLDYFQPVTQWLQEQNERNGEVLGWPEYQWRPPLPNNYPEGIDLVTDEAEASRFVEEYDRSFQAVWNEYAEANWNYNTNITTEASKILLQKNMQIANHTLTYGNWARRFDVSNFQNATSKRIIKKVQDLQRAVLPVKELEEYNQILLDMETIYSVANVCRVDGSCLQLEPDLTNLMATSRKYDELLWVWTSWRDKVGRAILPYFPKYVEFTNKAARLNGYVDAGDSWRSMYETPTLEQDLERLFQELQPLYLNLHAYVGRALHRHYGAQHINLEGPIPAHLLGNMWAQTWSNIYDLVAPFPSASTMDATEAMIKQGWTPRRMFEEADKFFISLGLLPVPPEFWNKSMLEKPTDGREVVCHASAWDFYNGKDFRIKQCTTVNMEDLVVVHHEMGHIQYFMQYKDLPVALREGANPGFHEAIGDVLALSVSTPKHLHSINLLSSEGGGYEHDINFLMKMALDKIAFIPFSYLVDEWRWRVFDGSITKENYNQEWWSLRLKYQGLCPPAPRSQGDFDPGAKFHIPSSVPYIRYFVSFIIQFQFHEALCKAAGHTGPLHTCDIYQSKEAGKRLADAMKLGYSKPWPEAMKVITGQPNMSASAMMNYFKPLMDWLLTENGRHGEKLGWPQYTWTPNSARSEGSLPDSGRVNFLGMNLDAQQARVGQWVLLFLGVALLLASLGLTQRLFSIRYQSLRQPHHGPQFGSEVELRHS
Assay: ACE inhibitory activity after incubation in rat plasma (Method 2)
Assay type: biochemical, rabbit
Conditions: pre-incubated in rat plasma at 37° C. for 1 hour, dihydrochlorides, read-out: ACE inhibitory activity concentration (IC50)
Procedure: (§1) The ACE inhibitory activities of the certain compounds (I) of this invention were determined by measuring their ACE activities in accordance with the method reported by Neels et al. [Clinical Chemistry, 29, 1399 (1983)].
(§2) Lyophilized powder (1 g) of rabbit lungs (product of Pel-Freez Biologicals Company) was extracted with 10 ml of a 50 mM buffer of potassium phosphate (pH 8.3) and a centrifugation supernatant (40,000 g×40 minutes) was used as an enzyme solution. Each test compound was dissolved at a concentration of 1 mg/ml in water, methanol or dimethyl sulfoxide depending on its solubility, followed by dilution with water to provide test solutions.
(§3) Added to 10 μl of each of the test solutions of various concentrations was 100 μl of a mixed reactant (pH 8.3) containing 50 mM of N-2-hydroxyethylpiperazine-N'-2-ethanesulfonic acid (HEPES), 300 mM of NaCl, 400 mM of Na2 SO4 and 30 mM of hippurylglycylglycine, followed by an addition of 10 μl of the enzyme solution to conduct a reaction at 37° C. for 30 minutes. To the reaction mixture, 100 μl of a sodium tungstate solution (100 g/l) and 100 μl of 0.33M sulfuric acid were added to terminate the reaction, followed by a further addition of 1 ml of water. The resultant mixture was centrifuged to collect 750 μl of a supernatant, to which 1 ml of a 100 mM borate buffer (pH 9.6) was added. Added further was 50 μl of a 60 mM solution of sodium 2,4,6-tri-nitrobenzenesulfonate. After warming the mixture at 37° C. for 15 minutes, its absorbance was measured at 420 nm. The inhibition rates at the various concentrations were calculated and IC50 was then determined by a method known per se in the art.
Mixed to 1800 μl of rat plasma was 200 μl of each test solution, followed by incubation at 37° C. for 1 hour. The resulting mixture was then diluted with a 0.1M Tris-HCl buffer (pH 8.3). The procedure of Method 1 was thereafter followed to measure the ACE inhibitory activity.

Row | SMILES | pIC50
1 | CCCCC1CC(N[C@@H](CCCCN)C(=O)N2CCC[C@H]2C(=O)O)C(=O)O1 (single isomer, unassigned) [Compound 37, N^α -(2-oxo-5-butyl-3-tetrahydrofuranyl)-L-lysyl-L-proline] | 8.24
2 | CCCCCC1CC(N[C@@H](CCCCN)C(=O)N2CCC[C@H]2C(=O)O)C(=O)O1 (single isomer, unassigned) [Compound 38, N^α -(2-oxo-5-pentyl-3-tetrahydrofuranyl)-L-lysyl-L-proline] | 8.40
3 | CCCCCCC1CC(N[C@@H](CCCCN)C(=O)N2CCC[C@H]2C(=O)O)C(=O)O1 (single isomer, unassigned) [Compound 35, N^α -(2-oxo-5-hexyl-3-tetrahydrofuranyl)-L-lysyl-L-proline] | 8.33

Target: T1, Angiotensin Converting Enzyme (ACE)
Assay: ACE inhibitory activity (Method 1, rabbit lung enzyme, hippurylglycylglycine)
Assay type: biochemical
Conditions: pH 8.3, 37° C., 30 minutes, hydrochlorides, read-out: ACE inhibitory activity concentration (IC50)
Procedure: as §1, §2, §3

Row | SMILES | pIC50
4 | CCCCCCCCC1CC(N[C@@H](C)C(=O)N2CCC[C@H]2C(=O)O)C(=O)O1 (single isomer, unassigned) [Compound 21, N-(2-oxo-5-octyl-3-tetrahydrofuranyl)-L-alanyl-L-proline] | 8.54
5 | CCCCCCC1CC(N[C@@H](C)C(=O)N2CCC[C@H]2C(=O)O)C(=O)O1 (single isomer, unassigned) [Compound 14, N-(2-oxo-5-hexyl-3-tetrahydrofuranyl)-L-alanyl-L-proline] | 8.15
6 | C[C@H](N[C@H]1CC(c2ccccc2)OC1=O)C(=O)N1CCC[C@H]1C(=O)O (stereo partly drawn) [Comparative compound, reference compound] | 7.85
7 | CCCCCCCCCCC1CC(N[C@@H](C)C(=O)N2CCC[C@H]2C(=O)O)C(=O)O1 (single isomer, unassigned) [Compound 22, N-(2-oxo-5-decanyl-3-tetrahydrofuranyl)-L-alanyl-L-proline] | 8.52
8 | CCCCCCCC1CC(N[C@@H](C)C(=O)N2CCC[C@H]2C(=O)O)C(=O)O1 (single isomer, unassigned) [Compound 20, N-(2-oxo-5-heptyl-3-tetrahydrofuranyl)-L-alanyl-L-proline] | 8.24
9 | CCCCCC1CC(N[C@@H](C)C(=O)N2CCC[C@H]2C(=O)O)C(=O)O1 (single isomer, unassigned) [Compound 19, N-(2-oxo-5-pentyl-3-tetrahydrofuranyl)-L-alanyl-L-proline] | 8.14
